From the Kinase Knowledgebase extract (Sharma et al. 2016)

The molecules below were run against PIK3CG (human) (UniProt P48736) (assay: Assessment of PIK3CG Kinase Activity).
PIK3CG (human), sequence (P48736 whole entry, looked up): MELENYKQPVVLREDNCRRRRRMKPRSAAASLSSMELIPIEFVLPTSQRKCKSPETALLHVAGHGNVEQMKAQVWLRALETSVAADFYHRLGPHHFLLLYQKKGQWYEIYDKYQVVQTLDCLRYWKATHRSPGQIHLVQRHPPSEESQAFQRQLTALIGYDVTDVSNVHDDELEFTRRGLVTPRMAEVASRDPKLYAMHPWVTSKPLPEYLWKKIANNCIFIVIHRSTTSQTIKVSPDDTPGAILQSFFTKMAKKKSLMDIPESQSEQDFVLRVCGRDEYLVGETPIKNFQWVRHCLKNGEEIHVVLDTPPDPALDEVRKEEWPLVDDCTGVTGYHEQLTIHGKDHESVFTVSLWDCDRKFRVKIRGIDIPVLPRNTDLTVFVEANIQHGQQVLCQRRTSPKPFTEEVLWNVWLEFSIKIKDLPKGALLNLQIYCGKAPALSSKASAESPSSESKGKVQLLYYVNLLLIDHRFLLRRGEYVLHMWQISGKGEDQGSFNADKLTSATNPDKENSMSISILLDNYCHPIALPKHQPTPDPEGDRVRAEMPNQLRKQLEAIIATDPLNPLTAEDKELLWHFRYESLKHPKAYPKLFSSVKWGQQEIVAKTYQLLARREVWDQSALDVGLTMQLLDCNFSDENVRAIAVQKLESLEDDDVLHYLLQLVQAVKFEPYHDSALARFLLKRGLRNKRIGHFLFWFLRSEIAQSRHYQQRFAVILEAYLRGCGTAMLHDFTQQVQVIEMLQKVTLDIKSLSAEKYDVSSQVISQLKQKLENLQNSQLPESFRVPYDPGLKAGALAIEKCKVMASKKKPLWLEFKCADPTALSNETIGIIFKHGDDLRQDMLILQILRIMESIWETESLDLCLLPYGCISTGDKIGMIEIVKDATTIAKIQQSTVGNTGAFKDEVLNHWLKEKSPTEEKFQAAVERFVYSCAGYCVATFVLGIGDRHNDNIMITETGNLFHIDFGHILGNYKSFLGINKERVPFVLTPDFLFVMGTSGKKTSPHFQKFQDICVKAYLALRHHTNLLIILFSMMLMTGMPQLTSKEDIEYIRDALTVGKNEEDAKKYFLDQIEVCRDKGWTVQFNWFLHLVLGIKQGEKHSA
`CCN1CCCC(NC(=O)Cc2ccc(-n3ncc4c3-c3sc(NC(C)=O)nc3CC4)cc2)C1` (stereo not drawn) was tested, and the IC50 was < 0.8 µM. In the case of `CN(C)CCNC(=O)Nc1nc2c(s1)-c1c(cnn1-c1ccccc1)C2`, the IC50 is reported as < 0.8 µM. In the case of `CN(C)C(=O)Nc1nc2c(s1)-c1nc(N(C)C)ncc1CC2`, the IC50 is reported as < 0.8 µM. With `CN(C)CCNC(=O)Nc1nc2c(s1)-c1c(cnn1-c1ccccc1)CC2` the IC50 was < 0.8 µM. In the case of `CC(=O)Nc1nc2c(s1)-c1nc(-c3cccc(Cl)c3)ncc1CC2`, the IC50 is reported as < 0.8 µM. For `NC(=O)Nc1nc2c(s1)-c1nc(-c3ccccc3)ncc1CC2`, the IC50 was < 0.8 µM. In the case of `CC(=O)Nc1nc2c(s1)-c1c(cnn1-c1ccc(C(=O)N[C@H](CC(C)C)C(N)=O)cc1Cl)CC2`, the IC50 is reported as < 0.8 µM. `CC(=O)Nc1nc2c(s1)-c1c(cnn1-c1ccc(C(=O)NC(CN3CCOCC3)CN3CCOCC3)cc1)CC2` was tested, and the IC50 was < 0.8 µM. With `COc1ccccc1-n1ncc2c1-c1sc(NC(C)=O)nc1C2` the IC50 was < 0.8 µM. In the case of `CC(=O)Nc1nc2c(s1)-c1c(cnn1-c1ccc(C(=O)NC(C)(C)CN3CCN(C)CC3)cc1)CC2`, the IC50 is reported as < 0.8 µM. In the case of `CC(=O)Nc1nc2c(s1)-c1c(cnn1-c1ccc(C(=O)N[C@H]3CC[C@H](N4CCN(C)CC4)CC3)cc1)CC2`, the IC50 is reported as < 0.8 µM. `CC(=O)Nc1nc2c(s1)-c1c(cnn1-c1cccc3ccccc13)CC2` was tested, and the IC50 was < 0.8 µM. For `CC(=O)Nc1nc2c(s1)-c1c(cnn1-c1ccc(S(=O)(=O)O)cc1)CC2`, the IC50 was < 0.8 µM. With `CC(=O)Nc1nc2c(s1)-c1c(cnn1-c1ccc(C(=O)N[C@@H](Cc3ccc(O)cc3)C(N)=O)cc1Cl)CC2` the IC50 was < 0.8 µM. For `CC(=O)Nc1nc2c(s1)-c1c(c(N)nn1-c1ccccc1Cl)CC2`, the IC50 was < 0.8 µM. With `CC(=O)Nc1nc2c(s1)-c1c(cnn1-c1ccc(C(=O)N3CCC4(CC3)CNC(=O)O4)cc1)CC2` the IC50 was < 0.8 µM. In the case of `CC(=O)Nc1nc2c(s1)-c1c(cnn1-c1ccc(CC(=O)NCc3cnn(C)c3)cc1)CC2`, the IC50 is reported as < 0.8 µM. For `CC(=O)Nc1nc2c(s1)-c1c(cnn1-c1ccc(CC(=O)N3CCNC(=O)C3)cc1)CC2`, the IC50 was < 0.8 µM. With `CC(=O)Nc1nc2c(s1)-c1c(cnn1-c1ccc(CC(=O)N3CCC(O)CC3)cc1)CC2` the IC50 was < 0.8 µM. `CC(=O)Nc1nc2c(s1)-c1c(c(-c3cn(C)cn3)nn1-c1ccccc1Cl)CC2` was tested, and the IC50 was < 0.8 µM. `CC(=O)Nc1nc2c(s1)-c1c(cnn1-c1ccc(CC(=O)N3CCCC(O)C3)cc1)CC2` (stereo not drawn) was tested, and the IC50 was < 0.8 µM. In the case of `CC(=O)Nc1nc2c(s1)-c1c(c(C(C)C)nn1-c1ccc(C(=O)N(C)Cc3ccncc3)cc1Cl)CC2`, the IC50 is reported as < 0.8 µM. For `CC(=O)Nc1nc2c(s1)-c1c(cnn1-c1ccc(C(=O)NC3CCC(NC(=O)c4cccc5ccccc45)CC3)cc1)CC2` (stereo not drawn), the IC50 was < 0.8 µM. In the case of `O=C(CCN1CCCCC1)Nc1nc2c(s1)-c1c(cnn1-c1ccccc1)CC2`, the IC50 is reported as < 0.8 µM. `CC(=O)Nc1nc2c(s1)-c1cc(NC(C)C)ccc1CC2` was tested, and the IC50 was < 0.8 µM. `CC(=O)Nc1nc2c(s1)-c1nc(Cc3ccccc3)ncc1CC2` was tested, and the IC50 was < 0.8 µM. With `CC(=O)Nc1nc2c(s1)-c1c(cnn1-c1ccc(C(=O)NCc3nccn3C)cc1)CC2` the IC50 was < 0.8 µM. In the case of `CC(=O)Nc1nc2c(s1)-c1c(cnn1-c1ccc(C(=O)N[C@H]3CC[C@@H](N4CCCCC4)CC3)cc1)CC2`, the IC50 is reported as < 0.8 µM. `CCc1ccccc1-n1ncc2c1-c1sc(NC(C)=O)nc1CC2` was tested, and the IC50 was < 0.8 µM. In the case of `CC(=O)Nc1nc2c(s1)-c1c(cnn1-c1ccc(C(=O)N3CCOCC3)cc1Cl)CC2`, the IC50 is reported as < 0.8 µM. For `CC(=O)Nc1nc2c(s1)-c1c(cnn1-c1ccc(C(=O)N[C@H]3CC[C@@H](N4CCN(CC5CC5)CC4)CC3)cc1)CC2`, the IC50 was < 0.8 µM. In the case of `NCC(=O)Nc1nc2c(s1)-c1c(cnn1-c1ccccc1)CC2`, the IC50 is reported as < 0.8 µM. In the case of `CC(=O)Nc1nc2c(s1)-c1c(cnn1-c1ccc(O)c(Cl)c1)CC2`, the IC50 is reported as < 0.8 µM. With `CC(=O)Nc1nc2c(s1)-c1c(cnn1-c1ccc(C(=O)N3CCC(N4CCCCC4)CC3)cc1)CC2` the IC50 was < 0.8 µM. With `CC(=O)Nc1nc2c(s1)-c1nc(-c3ccc(O)cc3)ncc1CC2` the IC50 was < 0.8 µM. With `NC(=O)Nc1nc2c(s1)-c1c(cnn1-c1ccccc1)C2` the IC50 was < 0.8 µM. For `CC(=O)Nc1nc2c(s1)-c1c(cnn1-c1ccc(CC(=O)N(C)CC(=O)N3CCOCC3)cc1)CC2`, the IC50 was < 0.8 µM. `CC(=O)NCCCC[C@H](NC(=O)c1ccc(-n2ncc3c2-c2sc(NC(C)=O)nc2CC3)c(Cl)c1)C(N)=O` was tested, and the IC50 was < 0.8 µM. In the case of `CC(=O)Nc1nc2c(s1)-c1c(cnn1-c1ccc(C(=O)NCCN(C)C)cc1)CC2`, the IC50 is reported as < 0.8 µM. In the case of `CC(=O)Nc1nc2c(s1)-c1c(cnn1-c1ccc(C(=O)NCc3nc4ccccc4[nH]3)cc1)CC2`, the IC50 is reported as < 0.8 µM. For `CC(=O)Nc1nc2c(s1)-c1c(cnn1-c1ccc(C(=O)N[C@H]3CC[C@@H](N4C[C@@H](C)O[C@@H](C)C4)CC3)cc1)CC2`, the IC50 was < 0.8 µM. With `CC(=O)Nc1nc2c(s1)-c1c(cnn1-c1ccc(C(=O)N3CCC(CO)CC3)cc1)CC2` the IC50 was < 0.8 µM. For `CC(=O)Nc1nc2c(s1)-c1c(cnn1-c1cccc(N3C4CCC3CC(O)C4)c1)CC2` (stereo not drawn), the IC50 was < 0.8 µM. With `CC(=O)Nc1nc2c(s1)-c1c(cnn1-c1ccc(C(=O)NCc3ncc[nH]3)cc1)CC2` the IC50 was < 0.8 µM. In the case of `O=CNc1nc2c(s1)-c1c(cnn1-c1ccccc1)CC2`, the IC50 is reported as < 0.8 µM. For `CC(=O)Nc1nc2c(s1)-c1c(cnn1-c1ccc(C(=O)N(C)Cc3nccn3C)cc1)CC2`, the IC50 was < 0.8 µM. `CC(=O)Nc1nc2c(s1)-c1c(c(C)nn1-c1ccccc1C(F)(F)F)CC2` was tested, and the IC50 was < 0.8 µM. `CC(=O)Nc1nc2c(s1)-c1c(cnn1C1CCN(C(=O)C(F)(F)F)CC1)CC2` was tested, and the IC50 was < 0.8 µM. For `CC(=O)Nc1nc2c(s1)-c1c(cnn1-c1ccc(CC(=O)N3CCCC(C(N)=O)C3)cc1)CC2` (stereo not drawn), the IC50 was < 0.8 µM. With `COc1ccccc1-c1ncc2c(n1)-c1sc(NC(N)=O)nc1CC2` the IC50 was < 0.8 µM. `CC(=O)Nc1nc2c(s1)-c1nc(NC3CCN(C)CC3)ncc1CC2` was tested, and the IC50 was < 0.8 µM. With `CNC(=O)Nc1nc2c(s1)-c1nc(-c3ccccc3)ncc1CC2` the IC50 was < 0.8 µM. In the case of `CS(=O)(=O)c1cccc(Nc2nc3c(s2)-c2c(cnn2-c2ccccc2)CC3)c1`, the IC50 is reported as < 0.8 µM. In the case of `CC(=O)Nc1nc2c(s1)-c1nc(N3CCCC(CNC(C)C)C3)ncc1CC2` (stereo not drawn), the IC50 is reported as < 0.8 µM. `CC(=O)Nc1nc2c(s1)-c1c(cnn1-c1cccc([N+](=O)[O-])c1)CC2` was tested, and the IC50 was < 0.8 µM. For `COc1ccc(-n2ncc3c2-c2sc(NC(C)=O)nc2CC3)cc1`, the IC50 was < 0.8 µM. `CC(=O)Nc1nc2c(s1)-c1c(c(-c3ccco3)nn1-c1ccc(C(=O)N(C)C)cc1Cl)CC2` was tested, and the IC50 was < 0.8 µM. For `CC(=O)Nc1nc2c(s1)-c1c(c(-c3c[nH]cn3)nn1-c1ccccc1C(F)(F)F)CC2`, the IC50 was < 0.8 µM.
